Patent US20250339447A1, “19-NOR C3,3-DISUBSTITUTED C21-N-PYRAZOLYL STEROID AND METHODS OF USE THEREOF” (Sage Therapeutics, Inc., priority 2018, published 2025)

Experiments:
[1] = test system: synaptic and extrasynaptic GABAA receptors; assay: Modulation of GABAA receptors; conditions: stated in background
subjects with MDD [2] = assay: Phase 2 study in subjects with MDD (dose justification); type: in vivo, human; conditions: 30 mg per day
Excerpt: (§1) Dose adjustments to 20-mg of Compound 1 were permitted; 20-mg of Compound 1 was anticipated to be well tolerated as it was lower than the maximum tolerated dose level.

[3] = Previous clinical trials, morning versus evening administration; type: in vivo, human
Excerpt: as §1

[4] = test system: female subjects diagnosed with severe postpartum depression; assay: Placebo-controlled study of Compound 1 capsules in severe postpartum depression (Example 1); type: in vivo, human
Procedure: Compound 1 was investigated for use in subjects with depression. Female subjects (18-65 years old) diagnosed with severe postpartum depression (PDD) with a HAM-D total score of greater than or equal to 26 at screening and Day 1 were used in the investigation. The subjects were dosed once per day with capsules containing 30 mg of Compound 1. The dose could be adjusted to capsules containing 20 mg of Compound 1 if the 30 mg dose was not tolerated. Subjects not dosed with Compound 1 were dosed with a placebo. In total, 78 subjects were treated with Compound 1 at 30 mg and 73 subjects were treated with placebo.
Assuming a 2-sided test at an alpha level of 0.05, a sample size of approximately 65 evaluable subjects per treatment group provided 90% power to detect a placebo-adjusted treatment difference of approximately 4 points in the primary endpoint, change from baseline in HAM-D total score at Day 15 assuming standard deviation (SD) of 7 points. The change from baseline in the HAM-D total score was analyzed using a mixed effects model for repeated measures (MMRM). The model included the change from baseline at each visit as the dependent variable. The main comparison was (difference in least mean square [LSMEAN]) between Compound 1 Capsules and placebo at the 15-day timepoint.
For Model-based point estimates (i.e., LSMEAN, 95% confidence intervals, and p-values), an unstructured covariance structure was used to model the within-subject errors. If there was a convergence issue with the unstructured covariance model, Toeplitz, compound symmetry or Autoregressive (1) (AR[1]) covariance structure was used, following this sequence until convergence was achieved. […] When the covariance structure was not UN, the sandwich estimator for the variance-covariance matrix was derived, using the EMPIRICAL option in the PROC MIXED statement in SAS.
Similarly, an MMRM was used for the analysis of the following variables: changes from baseline in MADRS total score and HAM-A total score, and select individual item and subscale scores. For each model, the comparison of interest was between Compound 1 Capsules and matching placebo at the 15-day time point. Model-based point estimates (i.e., LS means), 95% confidence intervals, and p-values were reported.

[5] = test system: adult patients diagnosed with MDD (MADRS total score ≥32 and HAM-D total score ≥22); assay: Double-blind, randomized placebo-controlled Phase 3 study in Major Depressive Disorder (Example 5); type: in vivo, human; conditions: for overall incidence of patients who experienced AEs: 14-day treatment period and 28-day follow up, placebo 48.9%; for Fatigue incidence: placebo 2.6%; for Sedation incidence / treatment emergent AEs leading to study drug discontinuation: placebo 3.2%; for Dizziness incidence: placebo 3.7%; for Somnolence incidence: placebo 4.2%; for Nausea incidence: placebo 4.7%; for Diarrhea incidence: placebo 5.3%; for Headache incidence: treatment and 28-day follow up, placebo 7.4%
Procedure: Compound 1 was evaluated in a double-blind, randomized placebo-controlled Phase 3 study in Major Depressive Disorder (MDD). The evaluated the efficacy, safety and pharmacokinetics of Compound 1 in adult patients diagnosed with MDD (MADRS total score ≥32 and a HAM-D total score ≥22).
Compound 1 was administered to a patient, either in 20 mg daily doses once a day for 14 days or 30 mg once a day for 14 days.
Post-hoc analyses were conducted to evaluate the effects of performance factors of Compound 1 in the primary analysis, in patients with measurable drug concentrations, in patients with HAM-D≥24, and in patients with measurable drug concentrations and HAM-D≥24, and including the primary outcome at Day 15 (FIG. 11).

subjects with MDD [6] = assay: HAM-D course to Day 42 after a Compound 1 treatment cycle (source study not given); type: in vivo, human
Excerpt: Because of this, most subjects were eligible (i.e., PHQ-9 ≥10 and HAM-D ≥20 confirmed over 2 weeks) for a Compound 1 treatment cycle when needed; a 2-week period was required to establish a new MDE (DSM-5).

[7] = Day 42, among subjects achieving remission or response at Day 15

## C[C@@]1(O)CC[C@H]2[C@H](CC[C@@H]3[C@@H]2CC[C@]2(C)[C@@H](C(=O)Cn4cc(C#N)cn4)CC[C@@H]32)C1 [Compound 1]
[1]
  mode of action at GABAA receptors: positive allosteric modulator
Subjects with MDD [2]
  efficacy and tolerability of the dose level: efficacious and well-tolerated
[3]; administered in the morning
  adverse effect observed: sedation/somnolence
[3]; given in the evening
  tolerability: improved tolerability
[4]; 30 mg once a day for 15 days, compared to placebo
  overall efficacy conclusion: effective at treating postpartum depression
[4]; 30 mg once daily, Day 15, mean baseline 28.4 (2.09), placebo −13.6 (8.31)
  mean decrease from baseline in HAM-D total score: −18.0 (8.36)
[4]; 30 mg vs placebo, Day 15, MMRM, p 0.0029
  model-based between treatment group difference in HAM-D total score change (95% CI): −4.2 (−6.9, −1.5)
[4]; 30 mg vs placebo, Day 15, p 0.0063
  model-based between treatment group difference in HAM-A total score change (95% CI): −3.90 (−6.7, −1.1)
[4]; 30 mg vs placebo, Day 15, p=0.0182
  model-based between treatment group difference in MADRS total score change (95% CI): −4.6 (−8.3, −0.8)
[4]; 30 mg vs placebo, Day 15, p=0.0280
  CGI-I response, model-based odds ratio (95% CI): 2.15 (1.09, 4.27)
[4]; 30 mg vs placebo, p=0.0050
  HAM-D response, model-based odds ratio (95% CI): 2.63 (1.34, 5.16)
[4]; 30 mg vs placebo, p=0.0122
  HAM-D remission, model-based odds ratio (95% CI): 2.50 (1.22, 5.11)
[4]; 30 mg, Day 15, 53/74 subjects, placebo 38/73 (52.1%)
  CGI-I response rate: 71.6%
[4]; 30 mg, Day 15, baseline 34.9 (4.41), placebo −17.7 (11.72)
  mean decrease from baseline in MADRS total score: −22.0 (11.64)
[4]; 30 mg, Day 15, mean baseline 26.1 (5.88), placebo −12.9 (8.57)
  mean decrease from baseline in HAM-A total score: −16.5 (9.51)
[4]; 30 mg, 33/74 subjects, placebo 17/73 (23.3%)
  HAM-D remission rate: 44.6%
[4]; 30 mg, 53/74 subjects, placebo 35/73 (47.9%)
  HAM-D response rate: 71.6%
[5]; 20 mg and 30 mg
  tolerability in the trial: generally well tolerated
[5]; 20 mg once a day for 14 days
  separation from placebo: did not separate from placebo
[5]; 20 mg
  overall incidence of patients who experienced AEs: 50.0%
  Fatigue incidence: 1.6%
  Sedation incidence: 5.9%
  treatment emergent AEs leading to study drug discontinuation: 1.6%
  Dizziness incidence: 7.4%
  Somnolence incidence: 5.9%
  Nausea incidence: 5.3%
  Diarrhea incidence: 5.9%
  Headache incidence: 11.2%
[5]; 20 mg, complications of cocaine ingestion, Day 39
  patients reporting SAEs during follow-up: one
[5]; 30 mg (n=166) vs placebo (n=157), Day 3, p=0.016
  HAM-D total score, LS Mean Difference from placebo: −1.6
[5]; 30 mg once a day for 14 days, Day 15 (primary endpoint), placebo 11.2
  reduction in depressive symptoms in the HAM-D total score: 12.6
[5]; 30 mg vs placebo, Day 15, patients with HAM-D≥24, p=0.032
  HAM-D total score, LS Mean Difference, post-hoc: −2.3
[5]; 30 mg, Day 8, p=0.008
  HAM-D total score, LS Mean Difference from placebo: −2.1
[5]; 30 mg, Day 12, p=0.018
  HAM-D total score, LS Mean Difference from placebo: −2.1
[5]; 30 mg, Day 15, p=0.115
  HAM-D total score, LS Mean Difference from placebo: −1.4
[5]; 30 mg, Day 15, patients with HAM-D≥24 (n=124), placebo −11.4
  change from baseline in HAM-D total score, post-hoc: −13.7
[5]; 30 mg, Day 15, patients with measurable drug concentrations (n=151), placebo −11.2
  change from baseline in HAM-D total score, post-hoc: −13.0
[5]; 30 mg, Day 15, patients with measurable drug concentrations and HAM-D≥24 (n=115), placebo −11.4
  change from baseline in HAM-D total score, post-hoc: −14.0
[5]; 30 mg, Day 42, p=0.807
  HAM-D total score, LS Mean Difference from placebo: −0.5
[5]; 30 mg, Day 42, placebo −11.7
  change from baseline in HAM-D total score: −11.9
[5]; 30 mg
  overall incidence of patients who experienced AEs: 54.2%
  Fatigue incidence: 6.8%
  Sedation incidence: 4.7%
  treatment emergent AEs leading to study drug discontinuation: 2.1%
  Dizziness incidence: 5.7%
  Somnolence incidence: 6.8%
  Nausea incidence: 3.6%
  Diarrhea incidence: 6.3%
  Headache incidence: 6.3%
[5]; 30 mg, suicide attempt Day 5, bile duct stone after Day 2
  patients with serious adverse events (SAEs) during treatment: Two
[5]; 30 mg, syncope and associated injuries, Day 28
  patients reporting SAEs during follow-up: one
[5]; all groups
  AEs of loss of consciousness: no AEs of loss of consciousness
[5]; compared to baseline
  suicidal ideation or behavior by Columbia Suicide Severity Rating Scale (C-SSRS): no signal for increased suicidal ideation or suicidal behavior
[5]; patients who completed long-term follow-up up to 6 months, preliminary data
  depressive symptoms in long-term follow-up: maintenance of improvement in depressive symptoms
Subjects with MDD [6]; Day 15
  subjects achieving remission or response: 78.6%
Subjects with MDD [6]; [7]
  subjects with HAM-D score of 16 to 21: 18.2%
  subjects with HAM-D ≥22: 6.1%
